Assay results: patent US20160103142A1, “Blood-Platelet Test Method and Blood-Platelet Test Device” (FUJIMORI KOGYO CO., LTD., priority 2008, published 2016)

Tests used:
[1] = tested on: platelets; experiment: Camera images of platelet adherence in collagen-coated microchip 1 (Example 7); type: cell-based; conditions: ADP 0.025, 0.05, 0.1 μM in citric acid-treated blood, 8 μl/min, image after 1 minute
Experimental: (§1) In the first substrate 100, the length, depth and width of the channel (capillary) 101 were 20 mm, 50 μm and 2 mm, respectively.
A pump 109 was connected to the reservoir 107 via a tube, and the pressure exerted on the pump was measured with a pressure sensor which is not shown. In the reservoir 107, a cylindrical stirring bar 108 having a diameter of 2 mm and a length of 5 mm, which was prepared by coating an iron cylinder with PMEA, was contained. The stirring bar 108 was set such that it can be rotated at 60 to 180 rpm by the magnetic force of a stirrer 113 placed under the heater 115 which was heated to 37° C. An outlet duct 112 was connected to the outlet such that the blood after the analysis can be discharged. A camera 111 to which an image analyzer 114 was connected was placed above the channel dividing section 102 of the microchip 1, thereby allowing observation of the state of platelet activation in the channel dividing section 102.
An experiment was carried out using the microchip 1 and the system A in Example 1 for diagnosis by images. The pump 109 was filled with mineral oil, and the reservoir 107 was filled with blood anticoagulated with citric acid. The mineral oil was sent to the reservoir 107 using the pump 109 at a flow rate of 8 μl/min. to allow the blood to flow into the microchip 1. […]

[2] = tested on: platelets; experiment: Pressure increase in glass-surface microchip 2, citric acid-anticoagulated blood with ADP (Examples 8 to 10); type: ex vivo
From the text: The first substrate 200 shown in FIG. 3A and the second substrate 210 shown in FIG. 3B were laminated with and bonded to each other, to provide the microchip 2 shown in FIG. 3C. In terms of the substrate 200, a substrate made of PDMS (Fluidware) was used, and the depth of all the channels was 120 μm; the channel width was 1 mm; the length of the comb was 1 mm; the width of the comb was 50 μm; and the groove width was 50 μm. In terms of the substrate 210, a slide glass was used, and penetrating holes corresponding to the inlet and the outlet were provided as in the substrate 110, but, unlike the substrate 110, collagen was not applied since the glass plays a role as a platelet-adhesive surface. […] The mineral oil was injected from the pump 209 into the microchip 2 at a flow rate of 20 μl/min., and the inflow pressure of the mineral oil was measured by a pressure sensor which is not shown. Pressure changes were measured by carrying out an experiment which was the same as that in Example 8 except that ADP (manufactured by Wako Pure Chemical Industries, Ltd.) was further added to the blood anticoagulated with citric acid in the reservoir 207 to a final concentration of […]. Pressure changes were measured by carrying out an experiment which was the same as that in Example 9 except that blood collected 3 hours after dosing with 75 mg clopidogrel (Sanofi-aventis) was used.

[3] = tested on: platelets; experiment: Pressure increase in collagen-coated microchip 1, citric acid-treated blood with arachidonic acid or collagen (Examples 16 to 18); type: ex vivo; conditions: subject G
Experimental: as §1
The experiments a to f in Example 16 were carried out for the subject G 6 hours after dosing with 100 mg of aspirin.
Using blood of the subject G collected 6 hours after dosing with 100 mg of aspirin, experiments were carried out in the same manner as in Examples 16d to f except that the collagen to be added was increased to 12 μl or 18 μl.

[4] = tested on: platelets; conditions: subject D, blood collected 6 hours after oral 100 mg clopidogrel, 6 μl of 100 μM ADP in about 600 μl blood, 20 μl/min
Experimental: Two transparent substrates, that is, the first substrate 100 shown in FIG. 1(A) and the second substrate 110 shown in FIG. 1(B) (injection-molded products manufactured by Richell Corporation) were prepared. The side of the first substrate 100 wherein a groove corresponding to a capillary 101 opens and the side of the second substrate 110 having a platelet-adhesive surface 106 were bonded together such that these face to each other using a silane coupling agent and thermocompression bonding, to provide the microchip 1 shown in FIG. 1(C). In the first substrate 100, the length, depth and width of the channel (capillary) 101 were 20 mm, 50 μm and 2 mm, respectively. In terms of the channel dividing section 102, dividing walls 103 each having a length of 1.5 mm, width of 50 μm and height of 50 μm were placed at equal intervals of 50 μm, and this part was used as the channel dividing section. In the second substrate, each of the holes corresponding to the inlet and the outlet was a penetrating hole having a circular cross section and an inner diameter of 2 mm and a depth of 2 mm. At the position on the second substrate 110 which is overlapped with the channel dividing section 102 of the first substrate 100, about 10 μl of 3 mg/ml collagen type I (manufactured by Nitta Gelatin Inc.) was applied and dried under vacuum to provide a platelet-adhesive surface 106. […]

[5] = tested on: platelets; experiment: Pressure increase in collagen-coated microchip 1, hirudin-anticoagulated blood with agent added (Examples 19 to 22); type: cell-based; conditions: flow rate 7 μl/min, ReoPro 0.4 or 0.8 μg/ml
Experimental: as §1
(a) Blood was collected from the subject D using a hirudin blood collection tube (Multiplate Services GmbH), and about 600 μl of the blood anticoagulated with hirudin was filled in the reservoir 207. The pump 209 was filled with mineral oil and connected to the reservoir 207, whose tip was further connected to the inlet 104 in the microchip 1.

Nc1ncnc2c1ncn2[C@@H]1O[C@H](COP(=O)(O)OP(=O)(O)O)[C@@H](O)[C@H]1O [ADP, adenosine diphosphate]
amount of platelets adhered to the comb portion [1]: increase in the amount of platelets adhered to the comb portion, which occurred in an ADP concentration-dependent manner | pressure increase in the pump on addition of ADP ([2]; blood anticoagulated with citric acid, ADP final concentration 2 nM, flow rate 20 μl/min): caused pressure increase

CC(=O)Oc1ccccc1C(=O)O [aspirin]
pressure increase of blood collected after aspirin with increased collagen ([3]; 6 hours after 100 mg aspirin, collagen increased to 12 μl or 18 μl, 20 μl/min (FIG. 19)): can also be made to cause pressure increase by increasing the collagen to be added | anti-platelet effect of aspirin by pressure increase ([3]; 6 hours after dosing with 100 mg aspirin, arachidonic acid or collagen added, 20, 10, 5 μl/min): anti-platelet effect of aspirin can be analyzed

COC(=O)[C@H](c1ccccc1Cl)N1CCc2sccc2C1 [clopidogrel]
pressure increase after administration of clopidogrel [4]: pressure increase delayed | ADP-induced pressure increase after administration of clopidogrel ([2]; blood collected 3 hours after dosing with 75 mg clopidogrel, ADP 2 nM, 20 μl/min): the increase was suppressed

B1: ReoPro: ReoPro (Eli lilly), an antibody against the receptor GPIIb/IIIa on the platelet membrane (antibody, chains of the INN, looked up, V domains shown)
VH: EVQLQQSGTVLARPGASVKMSCEASGYTFTNYWMHWVKQRPGQGLEWIGAIYPGNSDTSYIQKFKGKAKLTAVTSTTSVYMELSSLTNEDSAVYYCTLYDGYYVFAYWGQGTLVTVSA
VL: EIVLTQSPVTLSVTPGDSVSLSCRASRDISNNLHWFQQTSHESPRLLIKYASQSMSGIPSRFSGSGSGTDFTLSINSVETEDFGMYFCQQTNSWPYTFGGGTKLEIK
modifications: Fab
notes: ReoPro (Eli lilly), an antibody against the receptor GPIIb/IIIa on the platelet membrane
anti-platelet effect under low shear stress [5]: rather strong anti-platelet effect
